From publication PMC8213057, “Targeting ALK2: An Open Science Approach to Developing Therapeutics for the Treatment of Diffuse Intrinsic Pontine Glioma” (Journal of Medicinal Chemistry, 2020)
Several values for one entry are separate records, joined by “and”; a condition that tells them apart may be missing. Equal values may be shown once.

Legend:
[1] = system: ALK1/ACVRL1
[2] = system: ALK2/ACVR1
[3] = system: KHS/MAP4K5
[4] = target: T1, CYP2D6 (Homo sapiens, UniProt P10635); assay: CYP inhibition assay; assay type: in vitro ADME; conditions: human liver microsomes
T1 construct: tissue Corning 452117; host or cells: pooled human liver microsomes (UltraPool HLM 150, mixed gender)

[5] = target: ABL1 (Homo sapiens, UniProt P00519); conditions: 1 μM; Run 1, Run 2
[6] = target: CDK4/cyclin D3 (Homo sapiens, UniProt P11802); conditions: 1 μM; Run 1, Run 2
[7] = target: ERBB4/HER4 (Homo sapiens, UniProt Q15303); conditions: 1 μM; Run 1, Run 2
[8] = target: JNK3 (Homo sapiens, UniProt P53779); conditions: 1 μM; Run 1, Run 2
[9] = target: LIMK1 (Homo sapiens, UniProt P53667); conditions: 1 μM; Run 1, Run 2
[10] = target: MAPKAPK3 (Homo sapiens, UniProt Q16644); conditions: 1 μM; Run 1, Run 2
[11] = target: MLK3/MAP3K11 (Homo sapiens, UniProt Q16584); conditions: 1 μM; Run 1, Run 2
[12] = target: RIPK2 (Homo sapiens, UniProt O43353); conditions: 1 μM; Run 1, Run 2
[13] = target: T2, STK22D/TSSK1 (Homo sapiens, UniProt Q9BXA7); conditions: 1 μM; Run 1, Run 2
T2 sequence (Q9BXA7 1-367): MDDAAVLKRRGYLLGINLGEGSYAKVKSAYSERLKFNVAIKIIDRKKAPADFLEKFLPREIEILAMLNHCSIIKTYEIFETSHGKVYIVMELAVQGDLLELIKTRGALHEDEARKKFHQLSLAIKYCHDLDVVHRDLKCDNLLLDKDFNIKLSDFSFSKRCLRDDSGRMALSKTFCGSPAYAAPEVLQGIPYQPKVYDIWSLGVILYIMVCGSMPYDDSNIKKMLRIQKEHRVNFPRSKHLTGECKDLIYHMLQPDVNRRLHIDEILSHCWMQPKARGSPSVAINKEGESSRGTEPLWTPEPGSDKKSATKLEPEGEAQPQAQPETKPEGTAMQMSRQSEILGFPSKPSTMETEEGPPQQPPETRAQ

[14] = target: CAMK1b (Homo sapiens, UniProt Q6P2M8); assay: biochemical; conditions: read-out: % enzyme activity, 1 μM; Run 1, Run 2
[15] = target: CDK1/cyclin B (Homo sapiens, UniProt P06493); assay: biochemical; conditions: read-out: % enzyme activity, 1 μM; Run 1, Run 2
[16] = target: CDK5/p35 (Homo sapiens, UniProt Q00535); assay: biochemical; conditions: read-out: % enzyme activity, 1 μM; Run 1, Run 2
[17] = target: PHKg1 (Homo sapiens, UniProt Q16816); assay: biochemical; conditions: read-out: % enzyme activity, 1 μM; Run 1, Run 2
[18] = target: T3, PHKg2 (Homo sapiens, UniProt P15735); assay: biochemical; conditions: read-out: % enzyme activity, 1 μM; Run 1, Run 2
T3 sequence (P15735 1-406): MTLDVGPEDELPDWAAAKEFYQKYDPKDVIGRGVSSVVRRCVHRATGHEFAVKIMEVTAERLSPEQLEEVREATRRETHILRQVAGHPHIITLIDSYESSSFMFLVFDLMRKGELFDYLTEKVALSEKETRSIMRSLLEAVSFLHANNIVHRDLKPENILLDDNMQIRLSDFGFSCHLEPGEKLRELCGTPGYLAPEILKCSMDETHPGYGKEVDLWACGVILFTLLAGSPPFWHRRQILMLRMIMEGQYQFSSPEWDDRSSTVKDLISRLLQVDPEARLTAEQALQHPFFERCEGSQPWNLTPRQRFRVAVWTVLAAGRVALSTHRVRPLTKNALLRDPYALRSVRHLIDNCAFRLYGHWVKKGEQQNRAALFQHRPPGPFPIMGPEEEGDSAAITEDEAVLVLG

[19] = target: SBK1 (Homo sapiens, UniProt Q52WX2); assay: biochemical; conditions: read-out: % enzyme activity, 1 μM; Run 1, Run 2
[20] = target: T4, TSSK3/STK22C (Homo sapiens, UniProt Q96PN8); assay: biochemical; conditions: read-out: % enzyme activity, 1 μM; Run 1, Run 2
T4 sequence (Q96PN8 1-268): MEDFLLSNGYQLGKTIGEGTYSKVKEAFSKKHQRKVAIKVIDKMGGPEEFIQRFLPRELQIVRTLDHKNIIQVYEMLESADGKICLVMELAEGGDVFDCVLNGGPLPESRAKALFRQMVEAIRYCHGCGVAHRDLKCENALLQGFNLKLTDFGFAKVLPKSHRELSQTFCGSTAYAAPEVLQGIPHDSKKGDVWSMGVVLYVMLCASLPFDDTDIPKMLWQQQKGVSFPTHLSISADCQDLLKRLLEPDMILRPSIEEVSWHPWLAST

Chain of CAMK1b (Q6P2M8 whole entry): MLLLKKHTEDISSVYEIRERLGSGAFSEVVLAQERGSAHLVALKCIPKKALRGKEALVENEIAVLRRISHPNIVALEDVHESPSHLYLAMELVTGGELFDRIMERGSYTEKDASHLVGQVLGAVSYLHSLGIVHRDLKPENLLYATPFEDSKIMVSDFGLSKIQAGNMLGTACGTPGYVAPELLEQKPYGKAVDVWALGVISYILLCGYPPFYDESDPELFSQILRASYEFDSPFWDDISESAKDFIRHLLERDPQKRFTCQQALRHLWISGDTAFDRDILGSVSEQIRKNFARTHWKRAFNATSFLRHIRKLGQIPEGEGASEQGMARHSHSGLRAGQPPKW
Chain of ABL1 (P00519 whole entry): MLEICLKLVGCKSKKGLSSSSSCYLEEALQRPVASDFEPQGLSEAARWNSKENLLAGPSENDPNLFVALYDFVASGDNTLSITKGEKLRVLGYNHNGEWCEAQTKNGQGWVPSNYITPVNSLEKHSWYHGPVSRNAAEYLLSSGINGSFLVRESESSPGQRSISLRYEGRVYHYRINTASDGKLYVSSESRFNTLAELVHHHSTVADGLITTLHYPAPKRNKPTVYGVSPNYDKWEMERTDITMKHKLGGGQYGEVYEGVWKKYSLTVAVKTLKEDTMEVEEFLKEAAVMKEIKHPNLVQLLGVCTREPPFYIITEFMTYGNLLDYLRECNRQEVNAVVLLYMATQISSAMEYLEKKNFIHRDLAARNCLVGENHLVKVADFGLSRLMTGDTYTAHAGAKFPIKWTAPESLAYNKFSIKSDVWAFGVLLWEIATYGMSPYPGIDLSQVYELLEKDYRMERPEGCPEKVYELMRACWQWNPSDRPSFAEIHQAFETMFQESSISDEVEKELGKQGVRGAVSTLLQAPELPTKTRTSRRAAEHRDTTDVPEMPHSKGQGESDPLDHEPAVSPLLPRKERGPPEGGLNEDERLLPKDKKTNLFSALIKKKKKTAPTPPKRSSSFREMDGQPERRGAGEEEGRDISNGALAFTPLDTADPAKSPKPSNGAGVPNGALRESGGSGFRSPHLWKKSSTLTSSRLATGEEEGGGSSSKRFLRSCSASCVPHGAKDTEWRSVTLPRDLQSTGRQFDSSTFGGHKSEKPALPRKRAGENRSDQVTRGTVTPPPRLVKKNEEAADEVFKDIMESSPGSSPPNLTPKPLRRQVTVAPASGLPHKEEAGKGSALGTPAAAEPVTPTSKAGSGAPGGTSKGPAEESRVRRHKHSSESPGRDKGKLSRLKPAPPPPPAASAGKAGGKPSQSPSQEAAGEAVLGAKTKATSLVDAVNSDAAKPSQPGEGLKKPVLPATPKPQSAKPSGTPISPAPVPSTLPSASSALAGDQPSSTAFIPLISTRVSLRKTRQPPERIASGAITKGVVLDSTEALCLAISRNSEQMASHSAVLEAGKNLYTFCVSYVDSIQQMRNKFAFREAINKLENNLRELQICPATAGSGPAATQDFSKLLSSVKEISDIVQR
Chain of MLK3/MAP3K11 (Q16584 whole entry): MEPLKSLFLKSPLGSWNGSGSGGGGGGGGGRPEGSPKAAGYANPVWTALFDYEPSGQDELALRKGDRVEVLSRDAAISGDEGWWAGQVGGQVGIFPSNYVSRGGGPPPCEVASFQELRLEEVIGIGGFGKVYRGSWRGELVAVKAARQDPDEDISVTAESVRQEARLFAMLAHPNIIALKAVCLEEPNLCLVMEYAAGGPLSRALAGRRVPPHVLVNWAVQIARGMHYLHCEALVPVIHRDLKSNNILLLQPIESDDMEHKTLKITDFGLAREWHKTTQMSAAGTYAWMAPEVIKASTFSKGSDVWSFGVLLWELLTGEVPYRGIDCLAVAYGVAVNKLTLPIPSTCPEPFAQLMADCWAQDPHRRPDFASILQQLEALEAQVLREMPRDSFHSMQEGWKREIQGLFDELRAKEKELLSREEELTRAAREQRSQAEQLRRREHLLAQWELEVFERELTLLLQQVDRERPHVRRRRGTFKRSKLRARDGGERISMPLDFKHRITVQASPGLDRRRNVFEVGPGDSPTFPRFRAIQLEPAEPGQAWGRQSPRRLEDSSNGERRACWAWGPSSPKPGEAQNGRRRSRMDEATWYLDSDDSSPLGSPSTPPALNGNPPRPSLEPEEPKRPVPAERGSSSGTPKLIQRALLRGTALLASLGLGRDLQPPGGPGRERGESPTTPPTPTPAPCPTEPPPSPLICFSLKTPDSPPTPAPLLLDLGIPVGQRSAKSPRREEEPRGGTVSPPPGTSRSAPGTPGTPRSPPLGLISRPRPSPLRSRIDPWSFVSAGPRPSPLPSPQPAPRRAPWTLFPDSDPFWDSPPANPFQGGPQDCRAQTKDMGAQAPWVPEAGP
T1 sequence (P10635 whole entry): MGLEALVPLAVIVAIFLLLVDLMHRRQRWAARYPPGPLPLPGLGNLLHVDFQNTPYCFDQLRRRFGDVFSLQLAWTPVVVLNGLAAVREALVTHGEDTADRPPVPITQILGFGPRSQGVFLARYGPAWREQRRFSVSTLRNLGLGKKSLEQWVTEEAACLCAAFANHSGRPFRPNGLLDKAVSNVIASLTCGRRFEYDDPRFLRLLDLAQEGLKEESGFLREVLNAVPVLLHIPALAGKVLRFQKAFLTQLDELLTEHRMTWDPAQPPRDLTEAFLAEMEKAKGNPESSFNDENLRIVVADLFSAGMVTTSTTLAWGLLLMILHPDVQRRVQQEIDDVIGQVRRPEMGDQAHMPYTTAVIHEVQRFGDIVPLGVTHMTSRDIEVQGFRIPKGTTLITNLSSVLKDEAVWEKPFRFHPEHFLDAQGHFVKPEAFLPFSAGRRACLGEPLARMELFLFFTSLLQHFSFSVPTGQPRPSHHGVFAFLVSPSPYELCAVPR
Chain of JNK3 (P53779 whole entry): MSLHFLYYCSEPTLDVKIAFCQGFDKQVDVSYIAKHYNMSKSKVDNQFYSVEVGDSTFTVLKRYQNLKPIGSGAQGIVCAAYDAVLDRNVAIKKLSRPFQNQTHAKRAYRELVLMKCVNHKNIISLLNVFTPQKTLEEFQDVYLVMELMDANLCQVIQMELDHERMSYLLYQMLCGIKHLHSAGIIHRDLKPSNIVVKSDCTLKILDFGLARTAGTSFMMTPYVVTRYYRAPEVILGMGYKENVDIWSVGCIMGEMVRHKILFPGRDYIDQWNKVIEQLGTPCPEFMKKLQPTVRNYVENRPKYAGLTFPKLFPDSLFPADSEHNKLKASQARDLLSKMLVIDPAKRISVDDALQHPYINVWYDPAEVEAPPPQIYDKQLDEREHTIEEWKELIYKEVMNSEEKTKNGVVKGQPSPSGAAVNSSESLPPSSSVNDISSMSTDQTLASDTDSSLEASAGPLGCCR
Chain of CDK5/p35 (Q00535 whole entry): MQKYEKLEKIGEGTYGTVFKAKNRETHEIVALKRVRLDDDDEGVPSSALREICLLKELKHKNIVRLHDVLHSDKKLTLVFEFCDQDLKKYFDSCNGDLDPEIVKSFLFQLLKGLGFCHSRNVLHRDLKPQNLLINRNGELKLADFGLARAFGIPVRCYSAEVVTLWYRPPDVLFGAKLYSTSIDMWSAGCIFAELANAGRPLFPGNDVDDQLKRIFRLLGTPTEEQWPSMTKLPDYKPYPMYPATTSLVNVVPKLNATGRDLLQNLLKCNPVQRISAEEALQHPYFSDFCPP
Chain of CDK5/p35 (Q15078 whole entry partner): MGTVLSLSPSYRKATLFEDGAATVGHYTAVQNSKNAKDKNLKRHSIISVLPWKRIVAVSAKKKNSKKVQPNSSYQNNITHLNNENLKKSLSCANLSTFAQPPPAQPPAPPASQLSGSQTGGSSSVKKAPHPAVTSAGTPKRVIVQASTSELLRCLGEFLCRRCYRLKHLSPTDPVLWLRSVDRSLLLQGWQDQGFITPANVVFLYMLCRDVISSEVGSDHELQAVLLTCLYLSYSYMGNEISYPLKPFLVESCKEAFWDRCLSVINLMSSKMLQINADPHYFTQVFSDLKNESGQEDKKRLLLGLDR
Chain of LIMK1 (P53667 whole entry): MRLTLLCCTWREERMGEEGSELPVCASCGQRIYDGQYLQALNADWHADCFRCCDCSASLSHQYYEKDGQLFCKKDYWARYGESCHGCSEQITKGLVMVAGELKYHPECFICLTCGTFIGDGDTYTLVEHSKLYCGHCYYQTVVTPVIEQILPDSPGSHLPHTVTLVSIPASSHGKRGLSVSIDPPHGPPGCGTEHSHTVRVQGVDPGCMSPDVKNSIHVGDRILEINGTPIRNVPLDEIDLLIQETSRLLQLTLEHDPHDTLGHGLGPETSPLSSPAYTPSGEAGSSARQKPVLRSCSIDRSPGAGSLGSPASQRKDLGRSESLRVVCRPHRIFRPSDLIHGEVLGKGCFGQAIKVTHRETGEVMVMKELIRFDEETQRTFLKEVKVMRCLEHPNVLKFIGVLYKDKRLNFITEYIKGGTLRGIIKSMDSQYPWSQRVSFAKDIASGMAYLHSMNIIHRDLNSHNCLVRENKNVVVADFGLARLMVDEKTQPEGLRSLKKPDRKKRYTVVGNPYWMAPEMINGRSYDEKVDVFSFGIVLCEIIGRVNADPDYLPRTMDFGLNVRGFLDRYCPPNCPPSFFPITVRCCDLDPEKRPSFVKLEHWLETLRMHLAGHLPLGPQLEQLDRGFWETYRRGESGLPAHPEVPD
Chain of SBK1 (Q52WX2 whole entry): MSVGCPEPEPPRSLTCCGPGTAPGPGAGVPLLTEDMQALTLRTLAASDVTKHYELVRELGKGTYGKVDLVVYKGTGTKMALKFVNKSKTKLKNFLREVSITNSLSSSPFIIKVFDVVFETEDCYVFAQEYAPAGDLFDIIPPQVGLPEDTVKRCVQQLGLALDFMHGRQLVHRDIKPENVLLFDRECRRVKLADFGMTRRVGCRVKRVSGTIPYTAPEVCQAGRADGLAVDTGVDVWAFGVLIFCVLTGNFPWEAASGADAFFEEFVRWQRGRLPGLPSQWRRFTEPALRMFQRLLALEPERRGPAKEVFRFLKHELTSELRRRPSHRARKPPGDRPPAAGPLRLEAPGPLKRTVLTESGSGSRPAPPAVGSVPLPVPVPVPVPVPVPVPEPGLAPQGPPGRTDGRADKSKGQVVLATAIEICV

Structure (SMILES) | % enzyme activity at 1 μM [1] | % enzyme activity at 1 μM [2] | % enzyme activity at 1 μM [3] | IC50 [4] | % enzyme activity [5] | % enzyme activity [6] | % enzyme activity [7] | % enzyme activity [8] | % enzyme activity [9] | % enzyme activity [10] | % enzyme activity [11] | % enzyme activity [12] | % enzyme activity [13] | remaining activity at 1 µM [14] | remaining activity at 1 µM [15] | remaining activity at 1 µM [16] | remaining activity at 1 µM [17] | remaining activity at 1 µM [18] | remaining activity at 1 µM [19] | remaining activity at 1 µM [20]
COc1cc(-c2cncc(-c3ccc(N4CCN(C)CC4)cc3)c2C)cc(F)c1C(N)=O [Compound 26a, 2-Fluoro-6-methoxy-4-(4-methyl-5-(4-(4-methylpiperazin-1-yl)phenyl)pyridin-3-yl)benzamide] | 2.65% | 9.92% and 8.63% | 39.7% and 39.3% | > 50 µM | 75.12% | 96.96% | 99.40% | 93.66% | 64.18% | 99.20% | 99.32% | 66.31% | 97.01% | 97.9% | 95.7% | 96.2% | 85.6% | 94.9% | 94.6% | 96.6%
COc1cc(-c2cncc(-c3ccc(N4C[C@@H](C)N(C)[C@@H](C)C4)cc3)c2C)cc(F)c1C(N)=O [Compound 26c, 2-Fluoro-6-methoxy-4-(4-methyl-5-(4-((3R,5S)-3,4,5-trimethylpiperazin-1-yl)phenyl)pyridin-3-yl)benzamide] | 4.67% and 4.38% | 13.7% and 11.7% | 41.7% and 40.6% | > 50 µM | 82.07% | 95.54% | 93.88% | 100.92% | 72.63% | 96.39% | 96.66% | 89.10% | 99.16% | 99.4% | 94% | 97.6% | 97% | 96.7% | 103% | 96.6%
